Laboratory results: ChEMBL document CHEMBL4184305, “Inhibition of histone lysine methyltransferases G9a and GLP by ejection of structural Zn(II)” (Bioorg Med Chem Lett, 2018)
Calls of active or inactive are those of the source. The rule behind the calls is not given here.

Assays:
[1] = target: T1, Histone-lysine N-methyltransferase EHMT2 (Homo sapiens) (UniProt Q96KQ7); test: Induction of wild type recombinant human histone lysine methyltransferase G9a (913 to 1193 residues) protein unfolding at 100 uM by circular dichroism analysis
T1 sequence (whole entry): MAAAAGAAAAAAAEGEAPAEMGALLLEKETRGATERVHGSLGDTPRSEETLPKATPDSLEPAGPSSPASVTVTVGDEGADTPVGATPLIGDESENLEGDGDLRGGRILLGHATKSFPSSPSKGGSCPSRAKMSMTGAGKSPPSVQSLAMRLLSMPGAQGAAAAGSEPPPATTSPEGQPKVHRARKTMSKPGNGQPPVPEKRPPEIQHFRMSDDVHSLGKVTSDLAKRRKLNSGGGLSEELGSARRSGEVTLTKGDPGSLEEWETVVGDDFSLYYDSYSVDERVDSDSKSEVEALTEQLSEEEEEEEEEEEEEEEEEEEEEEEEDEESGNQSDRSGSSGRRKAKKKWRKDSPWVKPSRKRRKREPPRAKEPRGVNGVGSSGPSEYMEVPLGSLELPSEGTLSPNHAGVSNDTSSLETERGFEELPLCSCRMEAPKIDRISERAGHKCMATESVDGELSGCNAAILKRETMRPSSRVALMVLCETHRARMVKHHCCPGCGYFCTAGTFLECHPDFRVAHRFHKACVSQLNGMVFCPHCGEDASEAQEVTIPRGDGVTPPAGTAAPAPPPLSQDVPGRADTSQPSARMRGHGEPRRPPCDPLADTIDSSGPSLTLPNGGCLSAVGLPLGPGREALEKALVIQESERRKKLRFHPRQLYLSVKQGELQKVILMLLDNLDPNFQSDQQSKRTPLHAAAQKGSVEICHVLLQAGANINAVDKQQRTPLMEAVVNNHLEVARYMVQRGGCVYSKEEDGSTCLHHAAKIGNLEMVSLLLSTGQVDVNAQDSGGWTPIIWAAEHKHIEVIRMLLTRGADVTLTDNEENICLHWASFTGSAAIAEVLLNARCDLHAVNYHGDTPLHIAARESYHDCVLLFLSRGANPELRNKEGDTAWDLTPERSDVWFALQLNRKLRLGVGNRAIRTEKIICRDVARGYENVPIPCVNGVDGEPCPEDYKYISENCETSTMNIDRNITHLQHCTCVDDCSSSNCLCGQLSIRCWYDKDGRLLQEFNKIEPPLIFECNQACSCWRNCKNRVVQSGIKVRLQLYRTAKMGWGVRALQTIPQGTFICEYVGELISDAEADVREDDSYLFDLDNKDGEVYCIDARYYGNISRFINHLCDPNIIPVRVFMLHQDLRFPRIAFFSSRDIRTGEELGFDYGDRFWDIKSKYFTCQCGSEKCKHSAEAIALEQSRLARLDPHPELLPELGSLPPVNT

[2] = target: T2, Histone-lysine N-methyltransferase EHMT1 (Homo sapiens) (UniProt Q9H9B1); test: Inhibition of wild type recombinant human histone lysine methyltransferase GLP (951 to 1235 residues) expressed in Escherichia coli Rosetta BL21 DE3 PlysS assessed as zinc ions ejection from Cys4-Zn finger at 100 uM by FluoZin-3 based fluorescence assay
T2 sequence (whole entry): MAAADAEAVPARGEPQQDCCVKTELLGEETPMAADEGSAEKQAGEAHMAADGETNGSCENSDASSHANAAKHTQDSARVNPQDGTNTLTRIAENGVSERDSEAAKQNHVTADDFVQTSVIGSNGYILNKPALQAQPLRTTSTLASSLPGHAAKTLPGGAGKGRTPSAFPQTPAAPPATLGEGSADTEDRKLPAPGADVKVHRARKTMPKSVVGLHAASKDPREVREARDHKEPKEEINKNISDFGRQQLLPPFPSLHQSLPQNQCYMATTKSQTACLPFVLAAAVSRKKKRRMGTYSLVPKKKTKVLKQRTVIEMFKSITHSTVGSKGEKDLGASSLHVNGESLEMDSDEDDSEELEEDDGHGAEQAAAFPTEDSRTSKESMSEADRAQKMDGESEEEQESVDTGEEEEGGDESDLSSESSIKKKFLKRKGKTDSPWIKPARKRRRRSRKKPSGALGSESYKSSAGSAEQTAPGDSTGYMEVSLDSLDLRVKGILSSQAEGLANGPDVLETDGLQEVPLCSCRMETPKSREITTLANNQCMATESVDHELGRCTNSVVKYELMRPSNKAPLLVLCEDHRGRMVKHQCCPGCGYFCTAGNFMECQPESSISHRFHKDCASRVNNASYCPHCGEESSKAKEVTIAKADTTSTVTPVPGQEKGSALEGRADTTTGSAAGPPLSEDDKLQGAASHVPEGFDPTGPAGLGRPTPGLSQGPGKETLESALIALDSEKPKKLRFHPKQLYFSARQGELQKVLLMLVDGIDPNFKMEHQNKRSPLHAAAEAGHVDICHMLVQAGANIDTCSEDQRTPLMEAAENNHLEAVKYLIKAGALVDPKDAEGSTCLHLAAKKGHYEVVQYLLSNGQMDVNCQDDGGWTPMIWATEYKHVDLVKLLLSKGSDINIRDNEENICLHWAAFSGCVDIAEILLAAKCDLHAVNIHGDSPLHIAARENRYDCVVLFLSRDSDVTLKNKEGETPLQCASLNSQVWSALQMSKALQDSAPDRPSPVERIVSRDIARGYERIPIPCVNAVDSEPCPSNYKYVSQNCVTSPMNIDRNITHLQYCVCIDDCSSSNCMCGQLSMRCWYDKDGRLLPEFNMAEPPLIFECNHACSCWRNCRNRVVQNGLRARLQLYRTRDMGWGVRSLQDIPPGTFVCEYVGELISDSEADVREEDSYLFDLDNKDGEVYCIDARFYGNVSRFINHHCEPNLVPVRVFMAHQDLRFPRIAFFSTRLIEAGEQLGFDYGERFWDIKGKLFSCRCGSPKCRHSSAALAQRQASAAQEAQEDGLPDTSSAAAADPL

[3] = target: T2, Histone-lysine N-methyltransferase EHMT1 (Homo sapiens); test: Inhibition of wild type recombinant human histone lysine methyltransferase GLP (951 to 1235 residues) expressed in Escherichia coli Rosetta BL21 DE3 PlysS at 10 uM using ARTKQTARKSTGGKA as substrate preincubated for 5 mins followed by substrate/SAM addition measured after 60 mins by MALDI-TOF MS analysis
[4] = target: T1, Histone-lysine N-methyltransferase EHMT2 (Homo sapiens); test: Inhibition of wild type recombinant human histone lysine methyltransferase G9a (913 to 1193 residues) expressed in Escherichia coli Rosetta BL21 DE3 PlysS assessed as zinc ions ejection from Cys4-Zn finger at >25 uM after 1 hr by circular dichroism analysis
[5] = target: T2, Histone-lysine N-methyltransferase EHMT1 (Homo sapiens); test: Inhibition of wild type recombinant human histone lysine methyltransferase GLP (951 to 1235 residues) expressed in Escherichia coli Rosetta BL21 DE3 PlysS assessed as zinc ions ejection from 3 types of Cys9-type Zn fingers at >25 uM after 1 hr by circular dichroism analysis
[6] = target: T3, Histone-lysine N-methyltransferase EHMT2 (Homo sapiens, UniProt Q96KQ7); test: Inhibition of wild type recombinant human histone lysine methyltransferase G9a (913 to 1193 residues) expressed in Escherichia coli Rosetta BL21 DE3 PlysS using ARTKQTARKSTGGKA as substrate preincubated for 5 mins followed by substrate/SAM addition measured after 60 mins by MALDI-TOF MS analysis
T3 sequence (Q96KQ7 whole entry): T1 sequence (whole entry)

CCN(CC)C(=S)SSC(=S)N(CC)CC
Activity [1]: Active
inhibition [2]: Active
inhibition [3]: inactive

O=c1c2ccccc2[se]n1-c1ccccc1 [EBSELEN]
inhibition [4]: Active
inhibition [5]: Active
Activity [1]: Active
IC50 [6]: 400 nM
inhibition [2]: Active
inhibition [3]: inactive
